From PMC6154322, “Anti-Trypanosomatid Elemanolide Sesquiterpene Lactones from Vernonia lasiopus O. Hoffm ^†” (Molecules : A Journal of Synthetic Chemistry and Natural …, 2017)
≈ marks a conversion by molar mass, not a printed value. Where “and” joins values, the source holds several entries; their conditions need not be identical. Equal entries are not always repeated. Where two headings read alike, the source gives them in different places.

What was measured:
[1] = system: P. falciparum chloroquine sensitive strain PoW; design: method as in PMID 12601673; conditions: cited from earlier work
[2] = system: P. falciparum chloroquine-resistant strain Dd2; design: method as in PMID 12601673; conditions: cited from earlier work
[3] = system: Trypanosoma brucei rhodesiense (bloodstream trypomastigotes, STIB 900 strain); assay: In vitro activity against T. b. rhodesiense bloodstream trypomastigotes (STIB 900); assay type: cell-based; conditions: for SI (selectivity index): ratio of cytotoxic (L6) over antiprotozoal (Tbr) IC50 values
[4] = Cytotoxicity test against mammalian cells (L6); conditions: rat
[5] = system: P. falciparum (multidrug resistance strain K1); design: method as in PMID 24242110; conditions: cited from earlier work
[6] = system: Plasmodium falciparum (intra erythrocytic forms, NF54 IEF strain); assay: In vitro activity against P. falciparum intra-erythrocytic forms (NF54); assay type: cell-based; conditions: NF54, read-out: IC50 Pf (crude extracts)
[7] = system: Leishmania donovani (amastigotes, MHOM-ET-67/L82 strain); assay: In vitro activity against L. donovani amastigotes (MHOM-ET-67/L82); assay type: cell-based; conditions: Table 1, MHOM-ET-67/L82 amastigotes, values marked a: only one replicate, others mean of two ± SD, read-out: IC50 Ldon (crude extracts)
[8] = Table 3, STIB 900 trypomastigotes, pure compounds, read-out: IC50 Tbr (elemanolides), value in brackets (converted)
[9] = Trypanosoma brucei, Table 3, STIB 900 trypomastigotes, pure compounds, read-out: IC50 Tbr (elemanolides), value in brackets (converted)
[10] = Trypanosoma brucei, Table 3, STIB 900 trypomastigotes, read-out: IC50 Tbr (elemanolides)

| Molecule | IC50 [3, 8] [nM] | IC50 [3, 9] [nM] | IC50 [3, 10] [µg/mL] | SI (selectivity index) [3] | IC50 [4] | also measured |
| --- | --- | --- | --- | --- | --- | --- |
| 11,13-Dihydrovernodalin [Compound 6] | – | – | – | – | – | IC50 P. falciparum PoW [1]: 2.3 µg/mL; IC50 P. falciparum Dd2 [2]: 1.1 µg/mL |
| C=CC12COC(=O)C(=C)C1C(O)C(C(=C)C(=O)OC)C(O)C2 (stereo not drawn) [Compound 1, 8-Desacylvernodalol] | 2530 | 2500 | 0.779 ± 0.22 | 13.7 | – | IC50 ([4]; L6 rat skeletal myoblast cells): 10.7 µg/mL and 34.6 µM |
| C=C[C@@]12COC(=O)C(=C)[C@@H]1[C@H]1OC(=O)C(=C)[C@@H]1[C@@H](O)C2 [Compound 2, Vernolepin] | 185 | 190 | 0.05 | 14.5 | 0.735 µg/mL and 2.68 µM | IC50 Tbr (elemanolides) ([3]; Table 3, STIB 900 trypomastigotes): 0.051 ± 0.035 µg/mL (≈ 0.185 µM); times more active than the crude extract (Tbr) ([3]; versus DCM crude extract): approximately 3.5 |
| C=C[C@@]12COC(=O)C(=C)[C@@H]1[C@@H](O)[C@@H]1C(=C)C(=O)O[C@H]1C2 [Compound 3, Vernomenin] | – | 508 | 0.14 ± 0.1 | 4.50 | 0.62 µg/mL and 2.26 µM | – |
| C=C[C@@]12COC(=O)C(=C)[C@@H]1[C@@H](O)[C@H](C(=C)C(=O)OC)[C@@H](OC(=O)C(=C)CO)C2 [Compound 4, Vernodalol] | 255 | 260 | 0.1 ± 0.041 | 14.4 | – | factor by which more active than compound 1 (Tbr) ([3]; compound 4 versus compound 1): ~10; IC50 anti-plasmodial activity, P. falciparum K1 [5]: 4.2 µg/mL (≈ 10.7 µM); IC50 ([4]; L6 rat skeletal myoblast cells): 1.44 µg/mL and 3.67 µM |
| C=C[C@@]12COC(=O)C(=C)[C@@H]1[C@H]1OC(=O)C(=C)[C@@H]1[C@@H](OC(=O)C(=C)CO)C2 [Compound 5, Vernodalin] | – | – | – | – | – | IC50 anti-plasmodial activity, P. falciparum K1 [5]: 4.0 µg/mL (≈ 11.1 µM) |
| CCN(CC)CCCC(C)Nc1ccnc2cc(Cl)ccc12 (stereo not drawn) [chloroquine] | – | – | – | – | – | IC50 [6]: 0.002 µg/mL (≈ 0.00625 µM) |
| Nc1nc(N)nc(Nc2ccc([As]3SCC(CO)S3)cc2)n1 (stereo not drawn) [melarsoprol, reference compound] | – | – | – | – | – | IC50 ([3]; Trypanosoma brucei, read-out: IC50 Tbr (crude extracts)): 0.003 ± 0.001 µg/mL |
| CCCCCCCCCCCCCCCCOP(=O)([O-])OCC[N+](C)(C)C [miltefosine] | – | – | – | – | – | IC50 [7]: 0.091 ± 0.07 µg/mL (≈ 0.223 µM) |
| COc1cc([C@@H]2c3cc4c(cc3[C@H](O)[C@H]3COC(=O)[C@H]23)OCO4)cc(OC)c1OC [podophyllotoxin, reference compound] | – | – | – | – | 0.007 ± 0.001 µg/mL (≈ 0.0169 µM) | – |
